Where a SMILES comes first, the peptide text is derived from it. Where no end group is shown, it is not given here. [ ]: non-standard residue; d: D form. Ahx = NCCCCCC(=O)O
How the values were obtained:
PDLSC cells = experiment: cell viability test (trypan blue count) on peptide-coated titanium discs; assay type: cell-based; conditions: for Total cell number (viable cells), Average: average of #1 and #2; for Total cell number (viable cells), Average / Total cell number (viable cells), #1 / Total cell number (viable cells), #2: PDLSC, 3 days culture, disc coated per Table 2 (peptides 100 μM, BMP-2 100 ng/ml); for Total cell number (viable cells), #1: replicate #1; for Total cell number (viable cells), #2: replicate #2; for cytotoxicity for cells: administered alone, 3 days of incubation, FIG. 5
Experimental: In order to evaluate whether or not a titanium binding peptide-linked osteogenic peptide (SEQ ID NO: 3 or SEQ ID NO: 4) and a titanium-binding peptide (SEQ ID NO: 1) are cytotoxic when these peptides are administered alone, a cell viability test was performed.
Specifically, one titanium disc was placed in each well of a 24-well low-attachment polystyrene plate and blocked with a blocking solution (0.1 M NaHCO3 (pH 8.6), 5 mg/ml BSA, 0.02% NaN3 (optional), filter sterilize) for at least 1 hour. Next, the blocking solution was discarded, and each well was washed three times or more with a washing solution (DPBS: Dulbeccos phosphate buffered saline), after which 50 μl of the solution shown in Table 2 below was dispensed and coated on the surface of each titanium disc. Each well was incubated at room temperature for 15 hours, and then washed three times or more with a washing solution (DPBS). Next, 3×10^4 PDLSC cells suspended in 50 μl of a medium (Minimum Essential Medium Eagle Alpha Modifications, Hyclone, USA) containing 10% FBS (Fetal Bovine Serum) and 1% antibiotic-antimycotic solution (Thermo Fisher Scientific, USA) were dispensed per titanium disc. […] Next, the cells were detached, stained with trypan blue, and counted with a hematocytometer to determine the number of viable cells.

[1] = luminescent image analysis with enhanced chemiluminescence (ECL) solution; assay type: binding; conditions: ECL solution as substrate, FIG. 2
Experimental: Specifically, washing was performed at least three times with suitable washing solution to remove 2,2′-AZINO-BIS used as a substrate in the above procedure, and then analysis was performed with a luminescent image analyzer using enhanced chemiluminescence (ECL) solution.

[2] = binding assay using an avidin-biotin complex (binding affinity for titanium); conditions: biotin-labeled peptide 100 nM to 1 μM, 15 hours at room temperature, FIG. 1
Experimental: In order to examine the binding affinities of the peptides synthesized in Example 1 and Comparative Examples 1 and 2 for titanium, the peptides were labeled with biotin. Each of the peptides was biotinylated using EZ-Link Sulfo-NHS-Biotin (Pierce Biotechnology, USA) according to the manufacturer's instruction, and unbound byproducts were removed by ultrafiltration that is a membrane separation method based on a pressure difference. The molecular weights of the synthesized products were measured by mass spectrometry. The synthesized products were analyzed and purified by reverse phase liquid chromatography. For analysis, a C18 column having a diameter of 4.6 mm was used, and 0.1% TFA/H2O and 0.092% TFA/acetonitrile were flushed onto the column at a rate of 1 ml/min with a gradient of 0-60% for 30 minutes. The wavelength of the UV detector used was 220 nm. For purification, a column having a diameter of 2.2 cm was used, and a flow rate of 20 ml/min and the solvent and detection wavelength as described above were used. Only the biotin-labeled peptide fraction was collected, and concentrated using a rotary evaporator to remove the solvent, followed by freeze-drying.
The binding affinity of the titanium-binding peptide for titanium was measured by performing a binding assay using an avidin-biotin complex. Specifically, one titanium disc was placed in each well of a 24-well polystyrene plate, and then blocked with a blocking buffer (0.1 M NaHCO3 (pH 8.6), 5 mg/ml BSA, 0.02% NaN3 (optional), filter sterilize) for at least one hour. […] Each titanium disc was treated with 50 μl of 1% SDS solution to stop the reaction, and the absorbance at 405 nm was measured.

[3] = tested on: periodontal ligament stem cells (PDLSCs); experiment: mineralization of periodontal ligament stem cells (Alizarin red S) on coated titanium discs; assay type: cell-based; conditions: day 18; significant p<0.05, not significant p>0.05
Experimental: Specifically, one titanium disc was placed in each well of a 24-well low-attachment polystyrene plate and blocked with a blocking solution (0.1 M NaHCO3 (pH 8.6), 5 mg/ml BSA, 0.02% NaN3 (optional), filter sterilize) for at least 1 hour. […] Each well was incubated at room temperature for 15 hours, and then washed three times or more with a washing solution (DPBS). Next, 3×10^4 PDLSC cells suspended in 50 μl of a medium (Minimum Essential Medium Eagle Alpha Modifications, Hyclone, USA) containing 10% FBS (Fetal Bovine Serum) and 1% antibiotic-antimycotic solution (Thermo Fisher Scientific, USA) were dispensed per titanium disc.

[4] = maximum binding amount of titanium-binding peptide, avidin-biotin binding assay
Experimental: To examine the maximum binding amount of the titanium-binding peptide TBP (SEQ ID NO: 1) per unit area of the titanium disc surface, a binding assay using an avidin-biotin complex was performed. Specifically, one titanium disc was placed in each well of a 24-well polystyrene plate, and then blocked with a blocking buffer (0.1 M NaHCO3 (pH 8.6), 5 mg/ml BSA, 0.02% NaN3 (optional), filter sterilize) for at least one hour. Next, the blocking buffer was discarded, and each titanium disc was strongly washed six times or more with a washing buffer (TBS+0.1% [v/v] Tween-20), after which 50 μl of each of the titanium-binding peptide TBP (SEQ ID NO: 1) of Example 1 and the peptides TBP-C(SEQ ID NO: 2) and ZBP (SEQ ID NO: 5, Korean Patent Application No. 10-2015-0048441) of Comparative Examples 1 and 2, which were biotin-labeled, synthesized, separated and purified in Example 3-1, was dispensed to the surface of each titanium disc at a concentration ranging from 100 nM to 40 mM. Each titanium disc was incubated at room temperature for 15 hours, and then washed strongly with a washing buffer, and 50 μl of a 1:500 dilution of ExtrAvidin-peroxidase (Cat. #E2886, Sigma-Aldrich, USA) in a blocking buffer was dispensed to the surface of each titanium disc. Each titanium disc was incubated at room temperature for 1 hour, and then washed strongly with a washing buffer, after which 50 μl of a substrate solution (2,2′-AZINO-BIS, Cat. #A3219, Sigma-Aldrich, USA) was dispensed to the surface of each titanium disc and allowed to react at room temperature for 20 minutes so as to develop color. Each titanium disc was treated with 50 μl of 1% SDS solution to stop the reaction, and the absorbance at 405 nm was measured.

Compound	Total cell number (viable cells), Average (PDLSC cells)	Total cell number (viable cells), #1 (PDLSC cells)	Total cell number (viable cells), #2 (PDLSC cells)	cytotoxicity for cells (PDLSC cells)	binding to titanium disc detected by luminescent image analyzer [1]	binding to the titanium disc surface (absorbance at 405 nm) [2]	mineralization (absorbance at 570 nm), difference versus NT (negative control) group [3]	concentration showing the maximum absorbance value ([4]; 100 nM to 40 mM tested, absorbance at 405 nm, FIGS. 3 and 4)	maximum amount of titanium-binding peptide bound to the surface of one titanium disc ([4]; back-calculation from molecular weight and dispensing amount, disc diameter 10 mm)	amount of titanium-binding peptide fixed per mm^2 of the titanium disc surface ([4]; disc diameter 10 mm)
GLRSKSKKFRRPDIQYPDA-NH2 [Osteogenic peptide, reference compound]	7.0 × 10^4	7.5 × 10^4	6.5 × 10^4	–	–	–	–	–	–	–
SLNYTGHRPVVHGLRSKSKKFRRPDIQYPDA-NH2 [TBP-osteogenic peptide]	7.8 × 10^4	7.5 × 10^4	8.0 × 10^4	not cytotoxic	–	–	–	–	–	–
SLNATGARAVVA [TBP-C]	–	–	–	–	hardly bind to a titanium disc	do not bind to the titanium disc surface	–	–	–	–
VSPFGTKWSPFV (Zirconia Binding Peptide) [ZBP]	–	–	–	–	hardly bind to a titanium disc	do not bind to the titanium disc surface	–	–	–	–
CC[C@H](C)[C@H](NC(=O)[C@H](CC(=O)O)NC(=O)[C@@H]1CCCN1C(=O)[C@H](CCCNC(=N)N)NC(=O)[C@H](CCCNC(=N)N)NC(=O)[C@H](Cc1ccccc1)NC(=O)[C@H](CCCCN)NC(=O)[C@H](CCCCN)NC(=O)[C@H](CO)NC(=O)[C@H](CCCCN)NC(=O)[C@H](CO)NC(=O)[C@H](CCCNC(=N)N)NC(=O)[C@H](CC(C)C)NC(=O)CNC(=O)CCCCCNC(=O)[C@H](Cc1c[nH]cn1)NC(=O)[C@@H](NC(=O)[C@@H](NC(=O)[C@@H]1CCCN1C(=O)[C@H](CCCNC(=N)N)NC(=O)[C@H](Cc1c[nH]cn1)NC(=O)CNC(=O)[C@@H](NC(=O)[C@H](Cc1ccc(O)cc1)NC(=O)[C@H](CC(N)=O)NC(=O)[C@H](CC(C)C)NC(=O)[C@@H](N)CO)[C@@H](C)O)C(C)C)C(C)C)C(=O)N[C@@H](CCC(N)=O)C(=O)N[C@@H](Cc1ccc(O)cc1)C(=O)N1CCC[C@H]1C(=O)N[C@@H](CC(=O)O)C(=O)N[C@@H](C)C(N)=O [TBP-Linker-osteogenic peptide] (H-SLNYTGHRPVVH[Ahx]GLRSKSKKFRRPDIQYPDA-NH2)	6.8 × 10^4	6.0 × 10^4	7.5 × 10^4	not cytotoxic	–	–	–	–	–	–
SLNYTGHRPVVH-NH2 [TBP]	7.0 × 10^4	7.0 × 10^4	7.0 × 10^4	not cytotoxic	binds to a titanium disc	binds to the titanium disc surface in a concentration-dependent manner	no statistically significant difference	100 µM	8.025 µg	about 0.1022 μg per mm^2
